The test system of series [1] is adjuvant induced arthritis (Freund's adjuvant) in rats. Briefly: Adjuvant induced arthritis in rats (oral, once daily days 0 through 13 post challenge). The series is classed as in vivo, Royal Hart, Wistar strain rats. How it is done: Groups of three Royal Hart, Wistar strain rats weighing 200±10 grams each were injected intradermally in the right hind paw with Freund's adjuvant (dried human tubercle bacilli in a mineral oil vehicle) at a dose of 2 mg./kg. of body weight. Test compounds were administered orally in a 1.5% starch vehicle at various doses once daily on days 0 through 13 post challenge. Control rats were treated in a similar manner, but given only starch vehicle. On the 14th and 21st day post challenge the diameter of the injected paw (primary lesion) was measured by micrometer caliper. The volume of inflamed paws were estimated from these measurements and the results are expressed as percent inhibition of swelling as compared to controls. At the same time, the other inflamed sites, such as ears, paws and tail (secondary lesions) were observed and each rat was graded as to degree of inflammation and swelling present. The grading is based on a scale of 0 to 24, where 0 represents a complete absence of induced arthritic nodules and 24 represents the maximum degree of inflammation. The mean grade for each treated group is calculated and the effects of each compound are expressed as percent inhibition of the control grade. Table I below records the results of tests conducted with the compounds of this invention and known anti-inflammatory agents. The compounds of this invention appear to suppress the progression of the arthritis and associated joint deterioration.

In series [2] the test system is adjuvant induced experimental polyarthritis. Conditions: result in words; literature; cited from earlier work.

Each structure is given as a SMILES string.

With `CC(=O)Oc1ccccc1C(=O)O` [Aspirin, reference compound], the “Inhibition of Swelling (primary lesion)” value in series [1] (oral 50 mg./kg., Day 14) is 23%; in series [1] (oral 50 mg./kg., Day 21), 3%; in series [1] (oral 100 mg./kg., Day 14) it was 36%; in series [1] (oral 100 mg./kg., Day 21) it was 13%; in series [1] (oral 200 mg./kg., Day 14), 48%; in series [1] (oral 200 mg./kg., Day 21) it was 27%. The “Inhibition of Swelling (primary lesion)” value in series [1] (oral 400 mg./kg., Day 14) is 73%; in series [1] (oral 400 mg./kg., Day 21), 48%.
As to `N#CC=C(N)c1cccs1` [β-Amino-2-thiopheneacrylonitrile, β-amino-2-thiopheneacrylonitrile], the entries for the “Dead/Treated at 21 Days” value in series [1] (oral 50 mg./kg. of body weight), in series [1] (oral 100 mg./kg. of body weight) and in series [1] (oral 200 mg./kg. of body weight) were 1/33, 2/18 and 6/18, respectively. Besides, the “% Inhibition of Control Grade (secondary lesion)” value is 21% in series [1] (oral 50 mg./kg., Day 14); 6% in series [1] (oral 50 mg./kg., Day 21); 25% in series [1] (oral 100 mg./kg., Day 14); 16% in series [1] (oral 100 mg./kg., Day 21); 80% in series [1] (oral 200 mg./kg., Day 14); 57% in series [1] (oral 200 mg./kg., Day 21). Also, the “Inhibition of Swelling (primary lesion)” value in series [1] (oral 50 mg./kg., Day 14) is listed as 44%; in series [1] (oral 50 mg./kg., Day 21), 23%; in series [1] (oral 100 mg./kg., Day 14), 49%; in series [1] (oral 100 mg./kg., Day 21) it was 27%; in series [1] (oral 200 mg./kg., Day 14), 70%; in series [1] (oral 200 mg./kg., Day 21), 61%. Moreover, the “Mean Weight Gain” value in series [1] (oral 50 mg./kg., Day 14) came to 54 grams; in series [1] (oral 50 mg./kg., Day 21) it was 50 grams; in series [1] (oral 100 mg./kg., Day 14), 45 grams; in series [1] (oral 100 mg./kg., Day 21), 51 grams; in series [1] (oral 200 mg./kg., Day 14), 36 grams; in series [1] (oral 200 mg./kg., Day 21) it was 53 grams.
`CCCCC1C(=O)N(c2ccccc2)N(c2ccccc2)C1=O` [Phenylbutazone, reference compound]: the “Inhibition of Swelling (primary lesion)” value in series [1] (oral 18.8 mg./kg., Day 14) turned out to be 31%; in series [1] (oral 18.8 mg./kg., Day 21), 7%; in series [1] (oral 37.5 mg./kg., Day 14), 56%; in series [1] (oral 37.5 mg./kg., Day 21), 14%; in series [1] (oral 75 mg./kg., Day 14) it was 62%; in series [1] (oral 75 mg./kg., Day 21) it was 28%. The “Inhibition of Swelling (primary lesion)” value in series [1] (oral 150 mg./kg., Day 14) was determined as 75%; in series [1] (oral 150 mg./kg., Day 21) it was 44%.
Take `N#CCC(=O)c1ccsc1` [β-Oxo-3-thiophenepropionitrile, β-oxo-3-thiophenepropionitrile]: in series [1] (oral 50 mg./kg. of body weight), the “Dead/Treated at 21 Days” value is 1/18. In series [1] (oral 50 mg./kg., Day 14), the “Inhibition of Swelling (primary lesion)” value is 61% and the “Mean Weight Gain” value is 53 grams. In series [1] (oral 50 mg./kg., Day 21), the “Inhibition of Swelling (primary lesion)” value was determined as 26% and the “Mean Weight Gain” value is given as 50 grams.
For `N#CC=C(N)c1ccsc1` [β-Amino-3-thiopheneacrylonitrile, β-amino-3-thiopheneacrylonitrile], the “Dead/Treated at 21 Days” value in series [1] (oral 50 mg./kg. of body weight) was 2/18. The “Inhibition of Swelling (primary lesion)” value is reported as 52% in series [1] (oral 50 mg./kg., Day 14) and 41% in series [1] (oral 50 mg./kg., Day 21). Also, the “Mean Weight Gain” value in series [1] (oral 50 mg./kg., Day 14) was determined as 47 grams; in series [1] (oral 50 mg./kg., Day 21) it was 54 grams.
Consider `COc1ccc2c(c1)c(CC(=O)O)c(C)n2C(=O)c1ccc(Cl)cc1` [Indomethocin, reference compound], for which the “arthritic paw swelling; joint and bone deterioration” value in series [2] was “prevent joint and bone deterioration”. Moreover, the “Inhibition of Swelling (primary lesion)” value is given as 30% in series [1] (oral 0.25 mg./kg., Day 14); 4% in series [1] (oral 0.25 mg./kg., Day 21); 40% in series [1] (oral 0.5 mg./kg., Day 14); 20% in series [1] (oral 0.5 mg./kg., Day 21); 46% in series [1] (oral 1 mg./kg., Day 14); 19% in series [1] (oral 1 mg./kg., Day 21). Besides, the “Inhibition of Swelling (primary lesion)” value was found to be 51% in series [1] (oral 2 mg./kg., Day 14) and 24% in series [1] (oral 2 mg./kg., Day 21).

(Values after patent US4241077A, “β-Oxo-3-thiophenepropionitrile and β-amino-2-(3)-thiopheneacrylonitriles” (American Cyanamid Company, priority 1979, dated 1980).)
